Laboratory results taken from PubChem BioAssay (NCI).
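Where inhibition never reached the appropriate level, the endpoint shown equals the highest concentration tested. Otherwise, values were interpolated linearly from a five-concentration, 48-hour dose response in 96-well plates. TGI denotes the concentration required for complete inhibition of growth.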

How the values were obtained:
Assay in all cases: NCI tumour cell line growth inhibition, 48 h
[1] = test system: NCI-H23 lung
[2] = test system: HCT-15 colon
[3] = test system: RXF 393 renal
[4] = test system: TK-10 renal
[5] = test system: SF-268 CNS
[6] = test system: M14 melanoma
[7] = test system: PC-3 prostate
[8] = test system: COLO 205 colon
[9] = test system: UO-31 renal
[10] = test system: NCI-H522 lung
[11] = test system: HOP-62 NSCLC
[12] = test system: SF-539 CNS

SMILES	TGI [1] [µM]	TGI [2] [µM]	TGI [3] [µM]	TGI [4] [µM]	TGI [5] [µM]	TGI [6] [µM]	TGI [7] [µM]	TGI [8] [µM]	TGI [9] [µM]	TGI [10] [µM]	TGI [11] [µM]	TGI [12] [µM]
C=C(C)[C@H]1C=C[C@@H](OC(C)=O)[C@@]2(COC(C)=O)[C@H](OC(=O)CCC)[C@H]3[C@@H](OC(C)=O)[C@@H](C)C[C@]3(O)C(=O)[C@@](C)(OC(C)=O)[C@H]12	> 100	> 100	> 100	> 100	> 100	> 100	> 100	65	> 100	> 100	–	–
O=C1C=C(NCCc2ccc(O)cc2)C(=O)C=C1NCCc1ccc(O)cc1	> 100	> 100	> 100	> 100	> 100	–	> 100	> 100	> 100	> 100	> 100	–
COC(=O)c1cc(OCc2cc(OCc3ccc(Br)cc3)cc(OCc3ccc(Br)cc3)c2)cc(OCc2cc(OCc3ccc(Br)cc3)cc(OCc3ccc(Br)cc3)c2)c1	> 100	> 100	–	> 100	> 100	> 100	> 100	> 100	> 100	> 100	> 100	> 100
CN(C)CCNc1nc2c(c(=O)n(C)c(=O)n2C)n1C	> 100	> 100	> 100	> 100	> 100	> 100	–	> 100	> 100	> 100	> 100	> 100
NCCCCNCCCNC(=O)c1csc(-c2nc(CCN)sc2Cl)n1	> 100	> 100	> 100	> 100	> 100	> 100	> 100	> 100	> 100	–	> 100	> 100
CC(C)N=C(NC#N)NS(=O)(=O)c1cnccc1NC1CCCCCCC1	> 100	> 100	> 100	> 100	> 100	> 100	> 100	> 100	> 100	> 100	> 100	–
N#C[C@H](c1nc2ccccc2[nH]1)c1nc2ccccc2nc1Cl	> 54.3	> 39.9	> 100	37.4	–	> 50.3	> 52.1	40	> 76.7	16.2	> 31.1	> 100
COC(=O)/C=C/[C@H]1[C@H](C)N1S(=O)(=O)c1ccc(C)cc1 (some centres not stated)	> 100	> 100	> 100	> 100	> 100	> 100	> 100	> 100	–	> 100	> 100	> 100
NC(=O)NC(=O)c1cccc(C(=O)NC(N)=O)n1	> 100	> 100	> 100	> 100	> 100	> 100	> 100	–	> 100	> 100	> 100	> 100
CC1(C)C/C=C\CCC(O)C(O)CCC(C)(C)C1=O (configuration not stated)	> 100	> 100	> 100	> 100	> 100	–	> 100	> 100	> 100	> 100	> 100	> 100
COC(=O)CC(c1ccccc1)C(C#N)(OP1(=O)OC(c2ccccc2)C(C)N1C)c1ccccc1 (configuration not stated)	> 100	> 100	> 100	> 100	> 100	> 100	> 100	44.6	> 100	> 100	> 100	–
COc1cc(CNC(=O)CCCCCCCCCCSC#N)ccc1O	43	23	21.9	44	–	21.5	27.5	94.5	21.9	27.8	–	37.1
CSc1cc(Cl)c(C)cc1S(=O)(=O)NC(=O)NNc1cnc2ccccc2n1	–	> 100	> 100	–	> 100	> 100	> 100	> 100	–	> 100	> 100	> 100
COC1=C2C[C@](OC)(C#CC=CC#CC2O)CC1(C)C (some centres not stated)	> 100	> 100	> 100	> 100	> 100	–	> 100	> 100	80.3	> 100	> 100	> 100
CN1CCN(C(=S)N(C(=O)c2ccc(Cl)cc2)C2CCCCC2)CC1	> 100	> 100	> 100	> 100	> 100	> 100	–	> 100	> 100	> 100	–	–
C[C@@H](Br)[C@@H]1CC[C@H]2c3[nH]c4ccccc4c3CCN2C1	67.1	48.1	61.5	> 100	> 100	44	75.4	26.3	> 100	29.5	40.5	–
O=C(CN1CCOCC1)c1ccc2c(c1)oc(=O)n2CCN1CCCCC1	> 100	> 100	> 100	> 100	> 100	> 100	> 100	> 100	> 100	–	> 100	> 100
O=C1CCCC1C(O)(C(F)(F)Cl)C(F)(F)Cl (configuration not stated)	> 10	> 10	> 10	> 10	> 10	> 10	> 10	> 10	–	> 10	> 10	> 10
CSc1nnc2n1-c1ccccc1SCC2	> 100	> 100	> 100	> 100	> 100	> 100	–	> 100	> 100	> 100	> 100	> 100
CN=C(NC#N)NCc1ccccc1	> 100	> 100	–	> 100	> 100	> 100	–	> 100	> 100	> 100	> 100	> 100
